# Results: patent publication US20120172438A1, “GLYCYRRHETINIC ACID ESTER DERIVATIVE SYNTHESIS METHOD AND DEOXOGLYCYRRHETINIC ACID ESTER COMPOUND” (priority 2009, published 2012)
# Marks after values point to notes of the source that are not given here.
# What was measured:
# [1] = system: BCG + LPS induced liver injury; assay: BCG+LPS induced liver injury in mice; type: in vivo, Kunming mice; details: 5.85 mg/kg gastric infusion, 7 days
# [2] = system: acetaminophen induced liver injury; assay: Acetaminophen induced liver injury in mice; type: in vivo; details: 5.85 mg/kg gastric infusion, 10 days
# Procedure: Ethyl 11-deoxy-18α-glycyrrhetinate: provided by traditional Chinese medicine laboratory, R&D center of Jiangsu Chia Tai Tianqing Pharmaceutical Co., Ltd. Bifendate pills: produced by Beijing Union Pharmaceutical factory. Daily dosage of human is 45 mg, used as the positive control medicine. Acetaminophen: produced by Jinzhou biochemical pharmaceutical factory. All medicines were prepared to desired concentrations with physiological saline according to the requirement of experiment. AST, ALT Kit: product of Nanjing Jiancheng bioengineering research institute.
# 60 mice were randomly divided into 6 groups: the normal control group, Bifendate group (positive medicine group), model control group, various doses of ethyl 11-deoxy-18α-glycyrrhetinate groups (240, 120, 60 mg/kg). After the animals were adaptively fed for 3 days, animals in each group were administered the medicines by gastric infusion for 10 days (one time/day). Animals in the normal control group and model group were administered 0.2 ml/mouse of physiological saline. 6 hours after the last administration, animals in each group, except the animals in normal control group, were intraperitoneally injected 400 mg kg-1 acetaminophen. After 12 hours, blood was taken by orbital bleeding. Activities of alanine aminotransferase (ALT), aspartate aminotransferase (AST) were measured. And T test of groups was performed, see table 7;
# [3] = system: TAA induced acute liver injury; assay: TAA induced acute liver injury mouse model; type: in vivo, ICR male mice; parameters: Average grade of hepatocyte necrosis: scale not given here; details: 240 mg/kg IG
# Procedure: 50 ICR male mice were randomly divided into 5 groups of 10 mice in each group: the model group, diammonium glycyrrhizinate group (240 mg/kg), high dose of ethyl 11-deoxy-18α-glycyrrhetinate group (240 mg/kg), middle dose of ethyl 11-deoxy-18α-glycyrrhetinate group (120 mg/kg), and low dose of ethyl 11-deoxy-18α-glycyrrhetinate group (60 mg/kg). The mice in model group were administered equal amount of 0.5% CMC-Na by IG.
# [4] = system: D-Galn induced acute liver injury; assay: D-Galn induced acute liver injury mouse model; type: in vivo, ICR male mice; details: Table 2 experiment, 7 days
# Procedure: 1. Comparison of therapeutic effects of ethyl 11-deoxy-18α-glycyrrhetinate and compound glycyrrhizin injection on ICR male mouse models of the D-Galn induced acute liver injury
# Methods: 60 ICR male mice were randomly divided into 6 groups of 10 mice in each group: the model group, compound glycyrrhizin injection group (60 mg/kg), compound glycyrrhizin gastric infusion group (240 mg /kg), high dose of ethyl 11-deoxy-18α-glycyrrhetinate group (240 mg/kg), middle dose of ethyl 11-deoxy-18α-glycyrrhetinate group (120 mg/kg), low dose of ethyl 11-deoxy-18α-glycyrrhetinate group (60 mg/kg). […] The mice in model group were administered equal amount of 0.5% CMC-Na by gastric infusion.
compound,measurement,setting,value
"COC(=O)c1cc(OC)c2c(c1-c1c(C(=O)OC)cc(OC)c3c1OCO3)OCO2 [Bifendate, reference compound]",ALT,[1],110.5 ± 11.9 U/L
same,AST,[1],152.3 ± 41.6 U/L
same,ALT,[2],134.6 ± 12.9 U/L
same,AST,[2],162.3 ± 31.7 U/L
"CC1(C)[C@@H](O[C@H]2O[C@H](C(=O)O)[C@@H](O)[C@H](O)[C@H]2O[C@@H]2O[C@H](C(=O)O)[C@@H](O)[C@H](O)[C@H]2O)CC[C@]2(C)[C@H]3C(=O)C=C4[C@@H]5C[C@@](C)(C(=O)O)CC[C@]5(C)CC[C@@]4(C)[C@]3(C)CC[C@@H]12.N.N [Diammonium glycyrrhizinate, diammonium glycyrrhizinate, reference compound]",ALT,[3],1568 ± 721 U/ml
same,ALT Inhibition %,[3],31%
same,AST,[3],1039 ± 623 U/ml
same,AST Inhibition %,[3],40%
same,Average grade of hepatocyte necrosis,[3],1.3**
same,Grade of hepatocyte necrosis 0 (number of mice),[3]; N=10,0
same,Grade of hepatocyte necrosis 1 (number of mice),[3]; N=10,7
same,Grade of hepatocyte necrosis 2 (number of mice),[3]; N=10,3
same,Grade of hepatocyte necrosis 3 (number of mice),[3]; N=10,0
same,Grade of hepatocyte necrosis 4 (number of mice),[3]; N=10,0
same,ALT,[4]; 60 mg/kg IP,383 ± 393 U/ml
same,ALT Inhibition %,[4]; 60 mg/kg IP,80%
same,AST,[4]; 60 mg/kg IP,308 ± 389 U/ml
same,AST Inhibition %,[4]; 60 mg/kg IP,73%
same,ALT,[4]; 240 mg/kg IG,993 ± 479 U/ml
same,ALT Inhibition %,[4]; 240 mg/kg IG,49%
same,AST,[4]; 240 mg/kg IG,566 ± 291 U/ml
same,AST Inhibition %,[4]; 240 mg/kg IG,50%
